This is an account of results in patent publication US8163753B2, “2,3-dihydro-6-nitroimidazo (2,1-b) oxazole compounds for the treatment of tuberculosis” (priority 2003, dated 2012).

`C[C@]1(COc2ccc(C(=O)NCC(=O)N3CCC(Oc4ccc(OC(F)(F)F)cc4)CC3)cc2)Cn2cc([N+](=O)[O-])nc2O1` yielded a melting point of 186.9 to 189.5 °C.
On to `CC1(COc2ccc(N3CCC(Cc4ccc(Cl)c(Cl)c4)CC3)cc2)Cn2cc([N+](=O)[O-])nc2O1` (stereo not shown), for which the melting point was 191.4 to 192.1 °C.
`C[C@]1(COc2ccc3nc(N4CCC(=Cc5ccc(OC(F)(F)F)cc5)CC4)ccc3c2)Cn2cc([N+](=O)[O-])nc2O1` showed a melting point of 193.9 to 195.9 °C.
With `CC1(COc2ccc(N3CCC(Cc4ccc(OC(F)(F)F)cc4)CC3)cc2)Cn2cc([N+](=O)[O-])nc2O1` (stereo not shown), the melting point fell in the range of 180.9 to 182.7 °C.
With `CN(CCCOc1ccc(OC(F)(F)F)cc1)C1CCN(c2ccc(OC[C@@]3(C)Cn4cc([N+](=O)[O-])nc4O3)cc2)CC1`, the melting point fell in the range of 167.4 to 170.2 °C.
As to `O=[N+]([O-])c1cn2c(n1)O[C@@H](COc1ccc(N3CCC(Cc4ccc(OC(F)(F)F)cc4)CC3)cc1)C2`, the melting point fell in the range of 160.5 to 164 °C.
In the case of `C[C@]1(COc2ccc(N3CCC(CCOCc4ccc(C(F)(F)F)cc4)CC3)cc2)Cn2cc([N+](=O)[O-])nc2O1`, the melting point lay within 198 to 199.2 °C.
On to `O=[N+]([O-])c1cn2c(n1)OC(COc1ccc(N3CCC(Cc4ccc(OC(F)(F)F)cc4)CC3)cc1)C2` (stereo not shown), for which the melting point is 132.7 to 135 °C.
`C[C@]1(COc2ccc(N3CCN(CC=Cc4ccc(C(F)(F)F)cc4)CC3)cc2)Cn2cc([N+](=O)[O-])nc2O1` yielded a melting point of 199.7 to 202 °C.
For `CC1(Cc2ccc(N3CCC(Oc4ccc(OC(F)(F)F)cc4)CC3)cc2)Cn2cc([N+](=O)[O-])nc2O1` (stereo not shown), the melting point was in the range of 184.9 to 186.8 °C.
In the case of `C[C@]1(COc2ccc(N3CCC(COCc4ccc(C(F)(F)F)cc4)CC3)cc2)Cn2cc([N+](=O)[O-])nc2O1`, the melting point was 172.3 to 172.9 °C.
As for `C[C@]1(COc2ccc(N3CCC(CO)CC3)cc2)Cn2cc([N+](=O)[O-])nc2O1`, the melting point lay within 171 to 173.8 °C.
In turn, `C[C@]1(COc2ccc(N3CCC(Cc4cccc(OC(F)(F)F)c4)CC3)cc2)Cn2cc([N+](=O)[O-])nc2O1` gave a melting point of 187.4 to 189.8 °C.
As to `CN(Cc1cc(C(F)(F)F)cc(C(F)(F)F)c1)C1CCN(c2ccc(OC[C@@]3(C)Cn4cc([N+](=O)[O-])nc4O3)cc2)CC1`, the melting point lay in the range of 193.8 to 195.3 °C.
With `C[C@]1(COc2ccc(CN3CCC(Cc4ccc(OC(F)(F)F)cc4)CC3)cc2)Cn2cc([N+](=O)[O-])nc2O1` the figure was 172.5 to 174.1 °C.
In turn, `C[C@]1(COc2ccc(N3CCN(Cc4csc(-c5ccc(C(F)(F)F)cc5)n4)CC3)cc2)Cn2cc([N+](=O)[O-])nc2O1` gave a melting point of 210 to 212.1 °C.
`CN(Cc1ccc(C(F)(F)F)cc1F)C1CCN(c2ccc(OC[C@@]3(C)Cn4cc([N+](=O)[O-])nc4O3)cc2)CC1`: the melting point lay within 197.5 to 199.2 °C.
Then `C[C@]1(COc2ccc(N3CCC(OCC=Cc4ccc(OC(F)(F)F)cc4)CC3)cc2)Cn2cc([N+](=O)[O-])nc2O1`, with 213.7 to 217.4 °C.
Regarding `C[C@]1(COc2ccc(-c3ccc(N4CCN(Cc5ccc(C(F)(F)F)cc5)CC4)cc3)cc2)Cn2cc([N+](=O)[O-])nc2O1`, the melting point is 247.7 to 248.4 °C (dec.).
Then `O=[N+]([O-])c1cn2c(n1)O[C@@H](COc1ccc(N3CCC(COCc4ccc(OC(F)(F)F)cc4)CC3)cc1)C2`, with 140.4 to 141.7 °C; and `CN(c1ccc(Cl)cc1)C1CCN(C2CCN(c3ccc(OC[C@@]4(C)Cn5cc([N+](=O)[O-])nc5O4)cc3)CC2)CC1`, with 230.8 to 232 °C; and `C[C@]1(COc2ccc(N3CCC(N4CCN(c5ccc(OC(F)(F)F)cc5)CC4)CC3)cc2)Cn2cc([N+](=O)[O-])nc2O1`, with 279 to 281 °C.
On to `C[C@]1(COc2ccc(N3CCCN(c4ccc(OC(F)(F)F)cc4)CC3)cc2)Cn2cc([N+](=O)[O-])nc2O1`, for which the melting point fell in the range of 134 to 137.9 °C.
The molecule `CN(C(=O)OC(C)(C)C)C1CCN(Cc2ccc(OCC3(C)Cn4cc([N+](=O)[O-])nc4O3)cc2)CC1` (stereo not shown) displayed a melting point of 138.5 to 141.9 °C.
As for `C[C@]1(COc2ccc(N3CCC(Nc4cc(Cl)cc(Cl)c4)CC3)cc2)Cn2cc([N+](=O)[O-])nc2O1`, the melting point is 122 to 124 °C.
Molecule `C[C@]1(COc2ccc(N3CCC(OCc4ccc(C(F)(F)F)cc4)CC3)cc2)Cn2cc([N+](=O)[O-])nc2O1` gave a melting point of 217.4 to 219.7 °C.
`C[C@]1(COc2ccc(N3CCC(Nc4ccc(Cl)c(Cl)c4)CC3)cc2)Cn2cc([N+](=O)[O-])nc2O1`: the melting point is 146 to 147.4 °C.
With `C[C@]1(COc2ccc(-c3ccc(N4CCN(Cc5ccc(Cl)cc5)CC4)cc3)cc2)Cn2cc([N+](=O)[O-])nc2O1` the figure was 247.8 to 248.5 °C (dec.).
Take `O=[N+]([O-])c1cn2c(n1)OC(COc1ccc(N3CCC(COCc4ccc(C(F)(F)F)cc4)CC3)cc1)C2` (stereo not shown): the melting point fell in the range of 140.2 to 141.7 °C.
With `C[C@]1(COc2ccc(N3CCC(COC(=O)Nc4ccc(OC(F)(F)F)cc4)CC3)cc2)Cn2cc([N+](=O)[O-])nc2O1` the figure was 211.6 to 212 °C (dec.).
`CC1(COc2ccc(N3CCC(COc4ccc(Cl)cc4)CC3)cc2)Cn2cc([N+](=O)[O-])nc2O1` (stereo not shown) had a melting point of 190 to 190.4 °C.
In the case of `C[C@]1(COc2ccc(N3CCC(COc4ccc(C(F)(F)F)cc4)CC3)cc2)Cn2cc([N+](=O)[O-])nc2O1`, the melting point is 223.2 to 225.2 °C (dec.).
For the molecule `CC1(COc2ccc(N3CCN(CC=Cc4ccc(OC(F)(F)F)cc4)CC3)cc2)Cn2cc([N+](=O)[O-])nc2O1` (stereo not shown), the melting point lay within 181.1 to 182.2 °C.
With `CC(C)(C)OC(=O)N1CCCN(c2ccc(-c3ccc(OC[C@H]4Cn5cc([N+](=O)[O-])nc5O4)cc3)cc2)CC1` the figure was 235.5 to 237.5 °C; with `O=[N+]([O-])c1cn2c(n1)OC(COc1ccc(N3CCC(COc4ccc(Cl)cc4)CC3)cc1)C2` (stereo not shown), 191.2 to 192.5 °C; with `C[C@]1(COc2ccc(-c3nc(-c4ccc(Cl)cc4)co3)cc2)Cn2cc([N+](=O)[O-])nc2O1`, 248.8 to 251.5 °C.
In turn, `CN(Cc1cc2cc(Cl)ccc2o1)C1CCN(c2ccc(OC[C@@]3(C)Cn4cc([N+](=O)[O-])nc4O3)cc2)CC1` yielded a melting point of 207.4 to 210 °C.
Molecule `CC1(COc2ccc(N3CCC(COCc4ccc(OC(F)(F)F)cc4)CC3)cc2)Cn2cc([N+](=O)[O-])nc2O1` (stereo not shown) had a melting point of 153.1 to 153.7 °C.
In turn, `CC(C)(C)OC(=O)N1CCCN(c2ccc(-c3ccc(OC[C@@]4(C)Cn5cc([N+](=O)[O-])nc5O4)cc3)cc2)CC1` returned a melting point of 213.8 to 215.7 °C.
For `C[C@]1(COc2ccc(N3CCN(CC=Cc4ccc(Cl)c(Cl)c4)CC3)cc2)Cn2cc([N+](=O)[O-])nc2O1`, the melting point was 204.7 to 206.4 °C.
For `C[C@]1(COc2ccc3cc(N4CCC(Oc5ccc(OC(F)(F)F)cc5)CC4)ccc3c2)Cn2cc([N+](=O)[O-])nc2O1`, the melting point fell in the range of 204.8 to 207.9 °C.
Turning to `CN(CCOc1ccc(OC(F)(F)F)cc1)C1CCN(c2ccc(OC[C@@]3(C)Cn4cc([N+](=O)[O-])nc4O3)cc2)CC1`, the melting point is 185.7 to 187.7 °C.
The molecule `C[C@]1(COc2ccc(N3CCN(Cc4ccc(N5CCC(Oc6ccc(OC(F)(F)F)cc6)CC5)cc4)CC3)cc2)Cn2cc([N+](=O)[O-])nc2O1` gave a melting point of 198.2 to 201.4 °C.
With `C[C@]1(COc2ccc(N3CCC(COc4ccc(-c5ccccc5)cc4)CC3)cc2)Cn2cc([N+](=O)[O-])nc2O1`, the melting point is 245 °C (dec.).
`C[C@]1(COc2ccc(N3CCC(CCc4ccc(OC(F)(F)F)cc4)CC3)cc2)Cn2cc([N+](=O)[O-])nc2O1` returned a melting point of 239.4 to 241.3 °C.
`C[C@]1(COc2ccc3nc(Cl)ccc3c2)Cn2cc([N+](=O)[O-])nc2O1`: the melting point is 182.2 to 184.7 °C.
Then `C[C@]1(COc2ccc3nc(N4CCC(Cc5ccc(OC(F)(F)F)cc5)CC4)ccc3c2)Cn2cc([N+](=O)[O-])nc2O1`, with 184.9 to 185.9 °C; and `C[C@]1(COc2ccc(C3CCN(Cc4csc(-c5ccc(C(F)(F)F)cc5)n4)CC3)cc2)Cn2cc([N+](=O)[O-])nc2O1`, with 194.6 to 196.4 °C; and `C[C@]1(COc2ccc(N3CCC(COC4CCCCO4)CC3)cc2)Cn2cc([N+](=O)[O-])nc2O1` (stereo partly shown), with 217.6 to 218.6 °C.
As for `C[C@]1(COc2ccc(N3CCC(CCOCc4ccc(OC(F)(F)F)cc4)CC3)cc2)Cn2cc([N+](=O)[O-])nc2O1`, the melting point was 204.8 to 206.7 °C.
In turn, `C[C@]1(COc2ccc(C3CCN(CC=Cc4ccc(C(F)(F)F)cc4)CC3)cc2)Cn2cc([N+](=O)[O-])nc2O1` displayed a melting point of 185.9 to 187.1 °C.
`CC1(COc2ccc3nc(N4CCN(Cc5ccc(OC(F)(F)F)cc5)CC4)sc3c2)Cn2cc([N+](=O)[O-])nc2O1` (stereo not shown): the melting point was in the range of 172.6 to 174.6 °C.
As to `CCCc1ccc(N(C)C2CCN(c3ccc(OC[C@@]4(C)Cn5cc([N+](=O)[O-])nc5O4)cc3)CC2)cc1`, the melting point is 198 to 199 °C.
In the case of `C[C@]1(COc2ccc(-c3ccc(N4CCN(Cc5ccc(Cl)c(Cl)c5)CC4)cc3)cc2)Cn2cc([N+](=O)[O-])nc2O1`, the melting point is 222.6 to 225.1 °C (dec.).
In the case of `C[C@]1(COc2ccc(N3CCC(Nc4ccc(Oc5ccc(OC(F)(F)F)cc5)cc4)CC3)cc2)Cn2cc([N+](=O)[O-])nc2O1`, the melting point was 198.6 to 201.1 °C (dec.).
The molecule `CN(c1ccc(OC[C@@]2(C)Cn3cc([N+](=O)[O-])nc3O2)cc1)C1CCN(c2ccc(OC(F)(F)F)cc2)CC1` showed a melting point of 137.9 to 139.2 °C.
`CN(CC=Cc1ccc(OC(F)(F)F)cc1)C1CCN(c2ccc(OC[C@@]3(C)Cn4cc([N+](=O)[O-])nc4O3)cc2)CC1` gave a melting point of 213 to 214.9 °C.
`O=[N+]([O-])c1cn2c(n1)O[C@@H](COc1ccc(N3CCC(COc4ccc(C(F)(F)F)cc4)CC3)cc1)C2`: the melting point was 175 to 180 °C.
`C[C@]1(COc2ccc(N3CCN(CCOc4ccc(OC(F)(F)F)cc4)CC3)cc2)Cn2cc([N+](=O)[O-])nc2O1` showed a melting point of 194.8 to 195.6 °C.
For `C[C@]1(COc2ccc(N3CCC(Cc4ccc(Cl)cc4)CC3)cc2)Cn2cc([N+](=O)[O-])nc2O1`, the melting point was in the range of 207.1 to 211.2 °C.
In turn, `C[C@]1(COc2ccc(N3CCC(CCOCc4ccc(Cl)cc4)CC3)cc2)Cn2cc([N+](=O)[O-])nc2O1` had a melting point of 197.6 to 198.2 °C.

As usually defined, the melting point is the temperature, or range, at which the solid turns liquid.
